Measurements published in ChEMBL document CHEMBL4118066, “QSAR-driven design, synthesis and discovery of potent chalcone derivatives with antitubercular activity” (Eur J Med Chem, 2017).
≈ marks a conversion by molar mass, not a printed value.

Tested on: Mycobacterium tuberculosis variant bovis
Assay: microbe, parasite or virus in culture
Type: functional
Details: ATCC 35734, 168 h

SMILES | MIC90 [µM]
CCCCc1ccc(C(=O)/C=C/c2ccc([N+](=O)[O-])s2)cc1 | 1.64 (≈ 0.517 µg/mL)
CSc1ccc(C(=O)/C=C/c2ccc([N+](=O)[O-])s2)cc1 | 0.56 (≈ 0.171 µg/mL)
O=C(/C=C/c1ccc([N+](=O)[O-])o1)c1ccc(-c2ccccc2)cc1 | 0.59 (≈ 0.188 µg/mL)
O=C(/C=C/c1ccc([N+](=O)[O-])s1)c1ccc(N2CCOCC2)cc1 | 9.12 (≈ 3.14 µg/mL)
O=C(/C=C/c1ccc([N+](=O)[O-])s1)c1ccc(C2CCCCC2)cc1 | 2.38 (≈ 0.813 µg/mL)
COc1ccc(/C=C/C(=O)c2cccc(I)c2)cc1 | 9.47 (≈ 3.45 µg/mL)
CSc1ccc(C(=O)/C=C/c2ccco2)cc1 | > 10
COc1ccc(/C=C/C(=O)c2cccc(Br)c2)cc1 | 9.38 (≈ 2.98 µg/mL)
O=C(/C=C/c1ccc([N+](=O)[O-])o1)c1cccc(Br)c1 | 0.18 (≈ 0.058 µg/mL)
O=C(/C=C/c1ccc([N+](=O)[O-])o1)c1ccc(I)cc1 | 2.57 (≈ 0.949 µg/mL)
CC(C)(C)c1ccc(C(=O)/C=C/c2ccco2)cc1 | > 10
CCCCc1ccc(C(=O)/C=C/c2ccc([N+](=O)[O-])o2)cc1 | 0.36 (≈ 0.108 µg/mL)
O=C(/C=C/c1ccc([N+](=O)[O-])o1)c1ccc(N2CCCC2)cc1 | 2.18 (≈ 0.681 µg/mL)
Cc1cccc(C(=O)/C=C/c2ccc([N+](=O)[O-])o2)c1 | > 10
CC(C)(C)c1ccc(C(=O)/C=C/c2ccc[nH]2)cc1 | > 10
CSc1ccc(C(=O)/C=C/c2ccc([N+](=O)[O-])o2)cc1 | 0.26 (≈ 0.0752 µg/mL)
O=C(/C=C/c1ccco1)c1ccc(N2CCCCC2)cc1 | > 10
CN(C)c1ccc(/C=C/C(=O)c2ccc(-c3ccccc3)cc2)cc1 | > 10
Cc1ccc(C(=O)/C=C/c2ccc([N+](=O)[O-])s2)cc1 | 0.98 (≈ 0.268 µg/mL)
O=C(/C=C/c1ccc(Cl)s1)c1ccc(-n2ccnc2)cc1 | 9.52 (≈ 3 µg/mL)
CC(C)(C)c1ccc(C(=O)/C=C/c2ccc([N+](=O)[O-])s2)cc1 | 0.5 (≈ 0.158 µg/mL)
Cc1ccccc1C(=O)/C=C/c1ccc([N+](=O)[O-])o1 | 0.27 (≈ 0.0695 µg/mL)
O=C(/C=C/c1ccc([N+](=O)[O-])cc1)c1ccc(N2CCCCC2)cc1 | > 10
O=C(/C=C/c1ccc([N+](=O)[O-])s1)c1ccc(-n2ccnc2)cc1 | 0.23 (≈ 0.0748 µg/mL)
O=C(/C=C/c1cccc([N+](=O)[O-])c1)c1ccc(N2CCCCC2)cc1 | > 10
COc1ccc(/C=C/C(=O)c2ccc(-c3ccccc3)cc2)cc1 | > 10
